# Test results taken from patent US8183262B2, “Pyridine derivatives as mGluR2 antagonists” (Hoffmann-La Roche Inc., priority 2007, dated 2012).
row,melting point,Compound
1,134 °C (dec.),"Cc1cc(-c2ccc(C(F)(F)F)cc2)cc(-c2cccc(-c3cccc(S(=O)(=O)N4CCC(Oc5ncccn5)CC4)c3)n2)n1 [Example 435, 6-Methyl-6′-{3-[4-(pyrimidin-2-yloxy)-piperidine-1-sulfonyl]-phenyl}-4-(4-trifluoromethyl-phenyl)-[2,2′]bipyridinyl]"
2,> 250 °C,"Cc1cc(-c2ccc(C(F)(F)F)c(C)c2)cc(-c2cccc(-c3cccc(S(N)(=O)=O)c3)n2)n1 [Example 440, 3-[6′-Methyl-4′-(3-methyl-4-trifluoromethyl-phenyl)-[2,2′]bipyridinyl-6-yl]-benzenesulfonamide]"
3,189 °C,"Cc1cc(-c2ccc(C(F)(F)F)cc2)nc(-c2ccnc(-c3cccc(S(=O)(=O)NC(C)(C)C)c3)c2)c1 [Example 297, N-tert-Butyl-3-[4-methyl-6-(4-trifluoromethyl-phenyl)-[2,4′]bipyridinyl-2′-yl]-benzenesulfonamide]"
4,192.5 °C,"O=S(=O)(NCCO)c1cccc(-c2cc(-c3nc(-c4ccc(C(F)(F)F)cc4)cc(C(F)(F)F)n3)ccn2)c1 [Example 381, N-(2-Hydroxy-ethyl)-3-{4-[4-trifluoromethyl-6-(4-trifluoromethyl-phenyl)-pyrimidin-2-yl]-pyridin-2-yl}-benzenesulfonamide]"
5,171 °C,"Nc1ccc(-c2cccc(-c3nc(-c4ccc(Cl)cc4)cc(C(F)(F)F)n3)c2)cn1 [Example 27, 5-{3-[4-(4-Chloro-phenyl)-6-trifluoromethyl-pyrimidin-2-yl]-phenyl}-pyridin-2-ylamine]"
6,213 °C (dec.),"NS(=O)(=O)c1cccc(-c2cccc(-c3cc(-c4ccc(C(F)(F)F)cc4)cc(CO)n3)n2)c1 [Example 439, 3-[6′-Hydroxymethyl-4′-(4-trifluoromethyl-phenyl)-[2,2′]bipyridinyl-6-yl]-benzenesulfonamide]"
7,197.5 °C,"CC(C)(C)NS(=O)(=O)c1ccc(-c2cccc(-c3nc(-c4ccc(Cl)cc4)cc(C(F)(F)F)n3)c2)s1 [Example 169, 5-{3-[4-(4-Chloro-phenyl)-6-trifluoromethyl-pyrimidin-2-yl]-phenyl}-thiophene-2-sulfonic acid tert-butylamide]"
8,282 °C (dec.),"NS(=O)(=O)c1ccc(-c2cn(-c3nc(-c4ccc(Cl)c(Cl)c4)cc(C(F)(F)F)n3)cn2)s1 [Example 208, 5-{1-[4-(3,4-Dichloro-phenyl)-6-trifluoromethyl-pyrimidin-2-yl]-1H-imidazol-4-yl}-thiophene-2-sulfonic acid amide]"
9,266.5 °C,"CCOc1cc(-c2cc(C(F)(F)F)nc(-n3cnc(-c4ccc(N)nc4)c3)n2)ccc1C(F)(F)F [Example 87, 5-{1-[4-(3-Ethoxy-4-trifluoromethyl-phenyl)-6-trifluoromethyl-pyrimidin-2-yl]-1H-imidazol-4-yl}-pyridin-2-ylamine]"
10,222.5 °C,"Cc1cc(-c2ccc(C(F)(F)F)c(C)c2)nc(-c2cccc(-c3cccc(S(N)(=O)=O)c3)c2)n1 [Example 416, 3′-[4-Methyl-6-(3-methyl-4-trifluoromethyl-phenyl)-pyrimidin-2-yl]-biphenyl-3-sulfonic acid amide]"
11,248 °C,"Cc1cc(-c2ccc(C(F)(F)F)c(C)c2)nc(-n2cnc(-c3cnc(N)nc3)c2)n1 [Example 123, 5-{1-[4-Methyl-6-(3-methyl-4-trifluoromethyl-phenyl)-pyrimidin-2-yl]-1H-imidazol-4-yl}-pyrimidin-2-ylamine]"
12,221 °C,"Cc1cc(-c2ccc(Cl)cc2)nc(-c2cccc(-c3cccc(S(N)(=O)=O)c3)c2)n1 [Example 166, 3′-[4-(4-Chloro-phenyl)-6-methyl-pyrimidin-2-yl]-biphenyl-3-sulfonic acid amide]"
13,257 °C,"CCC(=O)NS(=O)(=O)c1ccc(-c2cc(-c3nc(-c4ccc(C(F)(F)F)cc4)cc(C(F)(F)F)n3)ccn2)s1 [Example 375, 5-{4-[4-Trifluoromethyl-6-(4-trifluoromethyl-phenyl)-pyrimidin-2-yl]-pyridin-2-yl}-thiophene-2-sulfonic acid propionyl-amide]"
14,87 °C (dec.),"Cc1cc(-c2ccc(C(F)(F)F)cc2)nc(-c2ccnc(-c3cccc(N)c3)c2)c1 [Example 361, 3-[4-Methyl-6-(4-trifluoromethyl-phenyl)-[2,4]bipyridinyl-2′-yl]-phenylamine]"

# More lines, now with the values behind:
row,Compound,melting point
1,"NS(=O)(=O)c1ccc(-c2noc(-c3nc(-c4ccc(Cl)c(Cl)c4)cc(C(F)(F)F)n3)n2)cc1 [Example 98, 4-{5-[4-(3,4-Dichloro-phenyl)-6-trifluoromethyl-pyrimidin-2-yl]-[1,2,4]oxadiazol-3-yl}-benzenesulfonamide]",302.5 °C
2,"NS(=O)(=O)c1cccc(-c2cc(-c3nc(-c4ccc(F)c(F)c4)cc(C(F)(F)F)n3)ccn2)c1 [Example 400, 3-{4-[4-(3,4-Difluoro-phenyl)-6-trifluoromethyl-pyrimidin-2-yl]-pyridin-2-yl}-benzenesulfonamide]",233.5 °C
3,"Cc1cc(-c2ccc(C(F)(F)F)cc2)cc(-c2cccc(-c3cccc(S(=O)(=O)N4CCCC4)c3)n2)n1 [Example 369, 6-Methyl-6′-[3-(pyrrolidine-1-sulfonyl)-phenyl]-4-(4-trifluoromethyl-phenyl)-[2,2′]bipyridinyl]",174 °C
4,"Cc1cc(-c2cc(C(F)(F)F)nc(-c3ccnc(-c4ccc(N)nc4)c3)n2)ccc1Cl [Example 108, 4-[4-(4-Chloro-3-methyl-phenyl)-6-trifluoromethyl-pyrimidin-2-yl]-[2,3′]bipyridinyl-6′-ylamine]",207 °C
5,"Cc1cc(-c2ccc(Cl)c(C)c2)nc(-c2cccc(-c3ccc(N)nc3)c2)n1 [Example 376, 5-{3-[4-(4-Chloro-3-methyl-phenyl)-6-methyl-pyrimidin-2-yl]-phenyl}-pyridin-2-ylamine]",158 °C (dec.)
6,"CS(=O)(=O)c1cccc(-c2cn(-c3nc(-c4ccc(C(F)(F)F)cc4)cc(C(F)(F)F)n3)cn2)c1 [Example 217, 2-[4-(3-Methanesulfonyl-phenyl)-imidazol-1-yl]-4-trifluoromethyl-6-(4-trifluoromethyl-phenyl)-pyrimidine]",231 °C
7,"O=S(=O)(c1cccc(-c2cc(-c3nc(-c4ccc(C(F)(F)F)cc4)cc(C(F)(F)F)n3)ccn2)c1)N(CCO)CCO [Example 383, N,N-Bis-(2-hydroxy-ethyl)-3-{4-[4-trifluoromethyl-6-(4-trifluoromethyl-phenyl)-pyrimidin-2-yl]-pyridin-2-yl}-benzenesulfonamide]",186 °C
8,"Cc1cc(-c2ccc(C(F)(F)F)cc2)cc(-c2cccc(-c3cccc(S(=O)(=O)NCc4ccc(F)cc4)c3)n2)n1 [Example 433, N-(4-Fluoro-benzyl)-3-[6′-methyl-4′-(4-trifluoromethyl-phenyl)-[2,2′]bipyridinyl-6-yl]-benzenesulfonamide]",175 °C
9,"CC(C)CN(C)S(=O)(=O)c1cccc(-c2cc(-c3nc(-c4ccc(C(F)(F)F)cc4)cc(C(F)(F)F)n3)ccn2)c1 [Example 403, N-Isobutyl-N-methyl-3-{4-[4-trifluoromethyl-6-(4-trifluoromethyl-phenyl)-pyrimidin-2-yl]-pyridin-2-yl}-benzenesulfonamide]",144 °C
